Laboratory results published in PMC3169561, “Restoration of IFNγR Subunit Assembly, IFNγ Signaling and Parasite Clearance in Leishmania donovani Infected Macrophages: Role of Membrane Cholesterol” (PLoS Pathogens, 2011).

Target: T1, IFNγ receptor subunit 1 (IFNγR1) (Mus musculus, UniProt P15261)
T1 construct: gene Ifngr1; synthetic Wt IFNγR1 peptide, CRAC motif, residues 269 to 280 ([…])
Assay: SPR (BIAcore […], L1 chip) of peptide over immobilized phosphatidylcholine/cholesterol liposomes
Type: binding

Question: `CC(C)CCC[C@@H](C)[C@H]1CC[C@H]2[C@@H]3CC=C4C[C@@H](O)CC[C@]4(C)[C@H]3CC[C@]12C` [cholesterol] was tested. Which Kd did it give?
Answer: Its Kd is 4.27 nM.
